Measurements from paper PMC12650265 (The Journal of Experimental Medicine, 2025).
Entries after “also recorded” stand apart in the source; their conditions may differ.

Experiments:
soluble WT MR1 = assay: fluorescence-based thermal shift (thermostability) assay of MR1–ligand complexes; format: binding, human; settings: MR1 refolded with the ligand; SYPRO Orange, 28 to 95°C; three independent experiments; listed as MR1-Lumichrome
[1] = tested on: CD3^+ MR1-5-OP-RU tetramer^+ MAIT cells; assay: MAIT cell proliferation in CTV-labeled PBMCs; format: cell-based, human; settings: 7-day culture, 5-OP-RU 10 µM, others 100 µM
MR1^R9H = tested on: T1, MR1^R9H; assay: refolding of MR1^R9H with ligand in solution; format: binding, human
T1 construct: plasmids encoding for the extracellular domains of MR1, β2m, and the AF-7 TCRα and TCRβ chains; made in house
Source text: (§1) We then tested the effect of the RF catabolites on the expression of two mutant versions of MR1 termed MR1^R9H ([Howson et al., 2020]) and MR1^K43A ([Reantragoon et al., 2013]). First, we tested the MR1^R9H mutant ([Howson et al., 2020]), which represents a rare, natural human polymorph. […] We used C1R.MR1^R9H cells, which are produced by stable transduction of wild-type C1R cells, which express low levels of wild-type MR1, with a vector expressing the MR1^R9H mutant ([Howson et al., 2020]). […] When C1R. […] Next, we sought to understand how the previously characterized K43A mutation affects ligand binding.
Escherichia coli BL21(DE3) cells were transformed with plasmids encoding for the extracellular domains of MR1, β2m, and the AF-7 TCRα and TCRβ chains ([Kjer-Nielsen et al., 2012]; [Patel et al., 2013]; [Wang et al., 2022a]). The proteins were then expressed, and the inclusion bodies were purified, cleaned, and used for refolding. For both MR1 and AF-7 TCR, inclusion bodies were refolded through rapid dilution overnight as previously mentioned ([Keller et al., 2017]). To refold MR1 with ligands, 58 mg MR1 inclusion bodies along with 30 mg of β2m inclusion bodies were placed in 500 ml of refold buffer consisting of 0.1 M Tris, pH 8.0, 5 M of urea, 2 mM EDTA, 2.5 mM oxidized glutathione, 20 mM reduced glutathione, and 0.4 M of L-arginine for 16 h at 4°C. […]

[2] = tested on: T2, folded MR1 in C1R.MR1 cells; assay: intracellular total folded MR1 by flow cytometry (8F2.F9); format: cell-based, human; settings: 16 h, 100 µM
T2 construct: expressed in transfected cells; host or cells: C1R B lymphoblastoid cells transduced with MR1*01

hMR1 protein = molecular target: T3, hMR1 protein (Homo sapiens, UniProt Q95460); assay: fluorescence polarization–based cell-free assay, competition with JYM20 for MR1 binding; settings: 50% inhibition of 10 nM JYM20 binding to 100 nM empty hMR1, 37°C; three independent experiments in triplicate
T3 construct: plasmids encoding for the extracellular domains of MR1, β2m, and the AF-7 TCRα and TCRβ chains; made in house; host or cells: Escherichia coli BL21(DE3)

SKW-3-DGB129 line = assay: SKW-3 reporter T cell activation (CD69), coculture with C1R.MR1; format: cell-based; settings: SKW-3-DGB129 cocultured with C1R.MR1
Protocol: (§2) Given the intracellular MR1 retention induced by the RF catabolites, we anticipated that these ligands could influence the activity of MR1-reactive T cells. First, we utilized a system whereby reporter SKW-3 T cell lines were cocultured with C1R.MR1 APCs and activation was determined by CD69 expression. […] In contrast, SKW-3-MBV28 cells were inhibited by alloxazine but activated by lumichrome (Fig. S3, D–F). Two MR1-restricted TRAV1-2^−ve SKW-3 T cell lines were also tested.
(§3) C1R.MR1 cells (1 × 10^5) were initially stained with CTV (Thermo Fisher Scientific) for 15 min and then incubated with RF catabolites for 20 h. […] Cells were subsequently stained with PE-Cy7-conjugated anti-CD69 (1:100; BD Biosciences) and PE-labeled anti-MR1 (1:100, clone 26.5; BD Biosciences), before analysis on a LSRFortessa (BD Biosciences) flow cytometer. Activation of the SKW-3 cells was reflected by the cell surface CD69 expression.

[3] = tested on: SKW-3 cells expressing MAIT TCR MBV28; assay: as above; format: cell-based
Protocol: as §2, §3

[4] = tested on: SKW-3 cells expressing MAIT TCR AF-7; assay: as above; format: cell-based; settings: for reactivity to 5-OP-RU (CD69): SKW-3-AF-7, in the presence of 1 nM 5-OP-RU; for reactivity to RL-7-Me (CD69): SKW-3-AF-7, in the presence of 100 nM RL-7-Me
Protocol: as §2, §3

SKW-3-MAV36 line = assay: as above; format: cell-based; settings: SKW-3-MAV36, in the presence of 5-OP-RU
Protocol: as §2, §3

[5] = tested on: MAIT and TRAV1-2^−ve cells from PBMCs; assay: TCR-independent or bead stimulation of PBMCs (PMA and ionomycin, αCD3/αCD28 beads); format: cell-based, human
Vγ9Vδ2 T cells = assay: Vγ9Vδ2 T cell activation by zoledronate in PBMCs; format: cell-based, human; settings: PBMCs titrated with ligand in the presence of zoledronate
[6] = tested on: T4, human MR1–β2-microglobulin (β2m) complex; assay: refolding of recombinant MR1-β2m with ligand; format: binding; settings: ligand added to refolding buffer; gel filtration and SDS-PAGE
T4 construct: plasmids encoding for the extracellular domains of MR1, β2m, and the AF-7 TCRα and TCRβ chains; made in house

[7] = tested on: T5, surface MR1*01 on C1R.MR1 cells; assay: quantification of cell surface MR1 by flow cytometry, C1R.MR1 cells; format: cell-based, human; settings: for MR1 cell surface expression: C1R.MR1 cells, 1–200 µM, 8F2F9 antibody
T5 construct: expressed in transfected cells; host or cells: C1R B lymphoblastoid cells transduced with MR1*01

MAIT cells from PBMCs = assay: primary MAIT cell activation in PBMCs (CD69, TNF); format: cell-based, human; settings: 18 h, in the presence of 5-OP-RU or 5-A-RU
[8] = tested on: T6, MR1 on PBMC-derived B lymphocytes; assay: MR1 surface expression on primary B cells; format: cell-based; settings: primary human B cells, 16 h, highest doses, with or without 5-OP-RU
T6 construct: we also measured MR1 on the surface of cells expressing wild-type levels of MR1; endogenous in cells; host or cells: PBMC-derived B lymphocytes from healthy human donors

[9] = tested on: T7, MR1^K43A on C1R.MR1^K43A cells; assay: cell surface MR1^K43A by flow cytometry; format: cell-based, human
T7 construct: expressed in transfected cells; host or cells: C1R cells overexpressing MR1^K43A
Source text: as §1
The level of MR1 expressed on the cell surface was measured after the exposure to the investigated ligands as previously described ([Awad et al., 2020a]; [Wang et al., 2022a]). C1R Ag-presenting B lymphocytes overexpressing MR1*01 (C1R.MR1), MR1^K43A mutant (C1R.MR1^K43A), MR1^R9H mutant (C1R.MR1^R9H), or HLA-A*02:01 (C1R-A2), in addition to the monocytic THP-1-MR1 cells, were used in this study. 2 × 10^5 cells were incubated with RF catabolites for 3 or 16 h at 37°C and 5% CO2 in 200 μl folate-free RPMI 1640 medium from Gibco (Cat. No. 11875-093) fortified with 10% fetal bovine serum, sodium pyruvate (1 mmol/L), HEPES buffer (15 mmol/L), pH 7.2–7.5, 2% penicillin (100 U/ml), streptomycin ([…]), GlutaMAX (2 mmol/L), nonessential amino acids (0.1 mmol/L) (all from Thermo Fisher Scientific, Life Technologies), and 2-mercaptoethanol ([…], Sigma-Aldrich) (RF-10). After incubation, the cells were first stained with Zombie Aqua Fixable Viability Kit from BioLegend (Cat. No. 423102) and then incubated with biotinylated 8F2F9 αMR1 antibody for 30 min on ice. The unbound antibody was then washed off with 2% fetal bovine serum/PBS (called 2% FACS hereafter) buffer. The cells were finally incubated with PE-conjugated streptavidin (30 μg/ml; BioLegend) and then washed with 2% FACS buffer. The PE fluorescence intensity reflects the surface MR1 level. The data were acquired with LSRFortessa X-20 (BD Biosciences) and Diva software (BD Biosciences) and analyzed using FlowJo software (BD Biosciences).

MR1 on C1R.MR1 cells = tested on: T8, MR1 on C1R.MR1 cells; assay: competition with Ac-6-FP or 5-OP-RU for MR1 upregulation, C1R.MR1 cells; format: cell-based, human; settings: 1–200 µM overnight
T8 construct: expressed in transfected cells; host or cells: C1R B lymphoblastoid cells transduced with MR1*01

MR1 in C1R.MR1 cells = tested on: T9, MR1 in C1R.MR1 cells; assay: Endo H treatment and western blot of intracellular MR1; format: cell-based, human; settings: 16 h, Ac-6-FP 10 μM, RF and catabolites 100 μM
T9 construct: expressed in transfected cells; host or cells: C1R B lymphoblastoid cells transduced with MR1*01
Protocol: The downregulation of MR1 on the cell surface by the RF catabolites could be due to the depletion of the intracellular ER-resident MR1 pool, or due to the retention of MR1 in the ER, as shown for the DB28 ligand ([Salio et al., 2020]). To investigate this, C1R.MR1 cells were treated for 16 h with 100 µM RF or RF catabolites, conditions that induce MR1 downregulation (Fig. 3 A). Cells were lysed, and treated with endoglycosidase (Endo) H, to distinguish molecules that remain within the ER from those that have trafficked to the cell surface ([McWilliam et al., 2016]), and then, MR1 levels were assessed by immunoblotting (Fig. 3 A).
C1R.MR1 cells were cultured with different RF catabolites for 16 h, at 37°C. Samples were then treated with or without Endo H for 1-h incubation at 37°C. Cells were lysed, and lysate protein concentration was quantified by BCA assay. Equal amounts of samples (40 µg total protein) were separated on SDS-PAGE gels before being transferred onto nitrocellulose membranes and incubated with primary (anti-MR1; clone 8G3) ([McWilliam et al., 2020]) then corresponding secondary antibody (IRDye 800CW anti-mouse IgG, Cat. No. 925-32210; LICORbio). The protein bands were visualized by the Li-Cor system.

[10] = tested on: T10, MR1^R9H on C1R.MR1^R9H cells; assay: cell surface MR1^R9H by flow cytometry; format: cell-based, human
T10 construct: expressed in transfected cells; host or cells: C1R cells stably transduced with MR1^R9H
Source text: as §1
The level of MR1 expressed on the cell surface was measured after the exposure to the investigated ligands as previously described ([Awad et al., 2020a]; [Wang et al., 2022a]). C1R Ag-presenting B lymphocytes overexpressing MR1*01 (C1R.MR1), MR1^K43A mutant (C1R.MR1^K43A), MR1^R9H mutant (C1R.MR1^R9H), or HLA-A*02:01 (C1R-A2), in addition to the monocytic THP-1-MR1 cells, were used in this study. […] The PE fluorescence intensity reflects the surface MR1 level. The data were acquired with LSRFortessa X-20 (BD Biosciences) and Diva software (BD Biosciences) and analyzed using FlowJo software (BD Biosciences).

MR1 on THP-1.MR1 cells = tested on: T11, MR1 on THP-1.MR1 cells; assay: competition with Ac-6-FP for MR1 upregulation, THP-1.MR1 cells; format: cell-based, human; settings: 1–200 µM overnight, then 10 µM Ac-6-FP for 3 h
T11 construct: expressed in transfected cells; host or cells: THP-1 monocytic cells transduced with MR1

T3 sequence (Q95460 23-302 limits assumed): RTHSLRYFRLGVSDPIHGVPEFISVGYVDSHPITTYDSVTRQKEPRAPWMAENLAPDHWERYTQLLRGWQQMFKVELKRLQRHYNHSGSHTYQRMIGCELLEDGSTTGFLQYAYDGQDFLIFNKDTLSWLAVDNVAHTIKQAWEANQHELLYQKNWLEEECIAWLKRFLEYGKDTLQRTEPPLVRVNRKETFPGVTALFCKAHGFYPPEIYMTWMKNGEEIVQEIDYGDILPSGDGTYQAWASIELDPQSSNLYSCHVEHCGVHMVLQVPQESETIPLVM
T3 sequence (P61769 21-119 partner): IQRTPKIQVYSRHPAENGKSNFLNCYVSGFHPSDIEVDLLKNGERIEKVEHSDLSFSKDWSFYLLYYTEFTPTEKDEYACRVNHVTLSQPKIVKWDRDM

Cc1cc2nc3[nH]c(=O)[nH]c(=O)c3nc2cc1C [Lumichrome, 7,8-dimethylalloxazine]
Tm50 (half-maximum melting temperature), Mean ± SD (soluble WT MR1): 49.89 ± 0.33 °C
MAIT cell proliferation [1]: significantly reduced MAIT cell proliferation
refolding with MR1^R9H (MR1^R9H): did not refold with MR1^R9H in solution; also recorded: unable to refold
total level of folded MR1 (intracellular staining with 8F2.F9) [2]: increased the total level of folded MR1
IC50 (hMR1 protein): 12.5 µM
reactivity of MR1 autoreactive, nucleobase-adduct reactive line (CD69) (SKW-3-DGB129 line): inhibited
reactivity to 5-OP-RU (CD69) ([3]; SKW-3-MBV28, in the presence of 5-OP-RU): activated
reactivity to 5-OP-RU (CD69) [4]: enhanced activation
reactivity to RL-7-Me (CD69) [4]: inhibited in a dose-dependent manner
reactivity to 5-OP-RU (CD69) (SKW-3-MAV36 line): inhibited
CD69 upregulation by MAIT or TRAV1-2^−ve cells ([5]; PBMCs preincubated, then αCD3- and αCD28-coated beads): not reduced
Vγ9Vδ2 T cell activation induced by zoledronate (% CD69^+ Vδ2^+) (Vγ9Vδ2 T cells): did not interfere
folding of the MR1-β2m cocomplex in solution [6]: facilitated the correct folding of the MR1-β2m cocomplex
MR1 cell surface expression ([7]; 3 h): reduced MR1 cell surface
rank as downregulator of MR1 cell surface expression ([7]; overall: lumichrome, then alloxazine, lumiflavin, FMF): most potent downregulator
MAIT cell inhibition (CD69 MFI, % CD69^+, TNF production) (MAIT cells from PBMCs): most potent competitor showing the strongest MAIT cell inhibition
MR1 surface expression [8]: reduced MR1 surface expression
MR1^K43A at the cell surface ([9]; 3 h): increased MR1^K43A at the cell surface
MR1^K43A at the cell surface ([9]; 16 h): MR1 upregulation continues

Cc1cc2nc3c(=O)[nH]c(=O)nc-3n(C[C@H](O)[C@H](O)[C@H](O)CO)c2cc1C [RF, riboflavin]
IC50 (hMR1 protein): 182 µM
effect on Ac-6-FP–induced cell surface upregulation of MR1 (MR1 on C1R.MR1 cells; then 10 µM Ac-6-FP for 3 h): did not modulate
effect on 5-OP-RU–induced cell surface upregulation of MR1 (MR1 on C1R.MR1 cells; then 5-OP-RU for 3 h): did not modulate
activation (CD69 expression), ligand alone ([3]; SKW-3 MBV28 cocultured with C1R.MR1, no agonist): not activated
reactivity to 5-OP-RU (CD69) [4]: not altered
reactivity to RL-7-Me (CD69) [4]: activation was enhanced
activation (CD69 expression), ligand alone ([4]; SKW-3 AF-7 cocultured with C1R.MR1, no agonist): not activated
Endo H–resistant MR1 (MR1 in C1R.MR1 cells): Neither RF nor its catabolites induced any Endo H–resistant MR1
MR1^R9H surface level [10]: did not deviate from the background level
block of CD69 upregulation and TNF production ([5]; PBMCs preincubated 16 h, then PMA and ionomycin, MAIT or non-MAIT TRAV1-2^−ve cells): neither RF nor RF catabolites could block
folding of the MR1-β2m cocomplex in solution [6]: did not sponsor refolding of MR1
MR1 cell surface expression ([7]; 3 h): did not alter MR1 expression from the baseline
MR1 cell surface expression ([7]; 16 h): modestly upregulated MR1; also recorded: modest increase
effect on Ac-6-FP–induced cell surface upregulation of MR1 (MR1 on THP-1.MR1 cells): did not modulate
MR1^K43A at the cell surface ([9]; 16 h): MR1 upregulation continues
